Reference: article PMC4893628, “Chalcone-based Selective Inhibitors of a C4 Plant Key Enzyme as Novel Potential Herbicides” (Scientific Reports, 2016)
Read-outs that look alike come from different tables or passages of the source.

Columns and labels:
[1] = biological target: T1, F. trinervia PEPC (Flaveria trinervia, UniProt P30694); assay: biochemical; assay type: biochemical; conditions: for Selectivity C4/C3: C4 PEPC over C3 isoform; for IC50: IC50 F. trinervia PEPC, C4 PEPC
T1 construct: the full-length ppcA gene of PEPC from F. trinervia (EMBL-Bank X61304); made in house; host or cells: Escherichia coli BL21(DE3)
T1 sequence (P30694 1-966): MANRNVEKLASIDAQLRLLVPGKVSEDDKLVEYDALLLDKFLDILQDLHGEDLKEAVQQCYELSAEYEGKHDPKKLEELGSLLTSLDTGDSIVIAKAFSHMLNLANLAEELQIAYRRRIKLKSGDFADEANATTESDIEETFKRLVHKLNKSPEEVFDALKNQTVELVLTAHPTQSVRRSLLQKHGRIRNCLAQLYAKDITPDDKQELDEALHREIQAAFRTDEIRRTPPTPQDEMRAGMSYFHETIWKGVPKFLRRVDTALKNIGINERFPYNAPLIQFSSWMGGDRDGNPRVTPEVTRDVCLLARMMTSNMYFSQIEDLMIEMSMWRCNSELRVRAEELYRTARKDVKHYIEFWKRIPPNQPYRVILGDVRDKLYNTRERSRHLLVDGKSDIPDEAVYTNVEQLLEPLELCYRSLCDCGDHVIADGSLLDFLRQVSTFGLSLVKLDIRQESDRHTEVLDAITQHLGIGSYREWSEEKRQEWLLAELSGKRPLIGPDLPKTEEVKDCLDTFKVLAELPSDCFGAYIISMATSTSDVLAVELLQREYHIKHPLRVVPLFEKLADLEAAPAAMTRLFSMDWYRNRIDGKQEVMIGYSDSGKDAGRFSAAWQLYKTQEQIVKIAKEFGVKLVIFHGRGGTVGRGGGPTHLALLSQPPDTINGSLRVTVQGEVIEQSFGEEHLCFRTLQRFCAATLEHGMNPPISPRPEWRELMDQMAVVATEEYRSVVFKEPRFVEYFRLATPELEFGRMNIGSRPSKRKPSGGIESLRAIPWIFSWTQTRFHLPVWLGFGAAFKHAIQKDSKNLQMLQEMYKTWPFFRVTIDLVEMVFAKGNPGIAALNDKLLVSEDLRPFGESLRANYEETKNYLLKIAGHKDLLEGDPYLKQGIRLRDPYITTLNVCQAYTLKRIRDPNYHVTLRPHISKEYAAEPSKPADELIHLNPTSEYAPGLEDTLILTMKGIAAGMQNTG

[2] = tested on: Pseudomonas putida KT2440; assay: Bacterial growth in microscale cultivation, P. putida; assay type: cell-based; conditions: for activity at 4 µM / activity at 40 µM / activity at 400 µM / activity at 5 µM / activity at 50 µM / activity at 500 µM: Pseudomonas putida; for activity at 4 µM / activity at 40 µM / activity at 400 µM / Lag Phase: relative to control
Method in brief: (§1)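 Inhibitors in DMSO were added to the medium, at a maximum of 400 μM for trans-chalcone and 100 μM for 2'-hydroxychalcone. Cultures were seeded at OD600 0.5, or 0.25 for B. subtilis, and growth was followed as 620 nm backscatter in a BioLector at 1200 rpm. Final backscatter, growth rate and lag phase were compared with DMSO controls.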

[3] = tested on: Bacillus subtilis 168; assay: Bacterial growth in microscale cultivation, B. subtilis; assay type: cell-based; conditions: for activity at 4 µM / activity at 40 µM / activity at 400 µM / Lag Phase: relative to control
Method in brief: as §1

## O=C(/C=C/c1ccc(O)cc1)c1ccc(O)cc1O [Compound 6, 2′,4′,4-Trihydroxychalcone]
[1]
  Selectivity C4/C3: 1.5 fold
  IC50: 38.2 ± 10.9 µM
[2]; KT2440, complex medium, 4 µM, read-out: Final Backscatter
  activity at 4 µM: 97.7%
[2]; KT2440, complex medium, 4 µM, read-out: Growth rate
  activity at 4 µM: 104%
[2]; KT2440, complex medium, 40 µM, read-out: Final Backscatter
  activity at 40 µM: 97.2%
[2]; KT2440, complex medium, 40 µM, read-out: Growth rate
  activity at 40 µM: 106%
[2]; KT2440, complex medium, 400 µM, read-out: Final Backscatter
  activity at 400 µM: 99.9%
[2]; KT2440, complex medium, 400 µM, read-out: Growth rate
  activity at 400 µM: 100%
[2]; KT2440, minimal medium, 4 µM, read-out: Final Backscatter
  activity at 4 µM: 99%
[2]; KT2440, minimal medium, 4 µM, read-out: Growth rate
  activity at 4 µM: 104%
[2]; KT2440, minimal medium, 40 µM, read-out: Final Backscatter
  activity at 40 µM: 103%
[2]; KT2440, minimal medium, 40 µM, read-out: Growth rate
  activity at 40 µM: 106%
[2]; KT2440, minimal medium, 400 µM, read-out: Final Backscatter
  activity at 400 µM: 117%
[2]; KT2440, minimal medium, 400 µM, read-out: Growth rate
  activity at 400 µM: 104%
[2]; complex medium, 4 µM
  Lag Phase: 99,4%
[2]; complex medium, 40 µM
  Lag Phase: 101,7%
[2]; complex medium, 400 µM
  Lag Phase: 107,3%
[2]; minimal medium, 4 µM
  Lag Phase: 103,3%
[2]; minimal medium, 40 µM
  Lag Phase: 105,6%
[2]; minimal medium, 400 µM
  Lag Phase: 107,8%
[3]; Bacillus subtilis, 168, complex medium, 4 µM, read-out: Final Backscatter
  activity at 4 µM: 97.3%
[3]; Bacillus subtilis, 168, complex medium, 4 µM, read-out: Growth rate
  activity at 4 µM: 107%
[3]; Bacillus subtilis, 168, complex medium, 40 µM, read-out: Final Backscatter
  activity at 40 µM: 99.9%
[3]; Bacillus subtilis, 168, complex medium, 40 µM, read-out: Growth rate
  activity at 40 µM: 107%
[3]; Bacillus subtilis, 168, complex medium, 400 µM, read-out: Final Backscatter
  activity at 400 µM: 91.1%
[3]; Bacillus subtilis, 168, complex medium, 400 µM, read-out: Growth rate
  activity at 400 µM: 109%
[3]; Bacillus subtilis, 168, minimal medium, 4 µM, read-out: Final Backscatter
  activity at 4 µM: 100%
[3]; Bacillus subtilis, 168, minimal medium, 4 µM, read-out: Growth rate
  activity at 4 µM: 103%
[3]; Bacillus subtilis, 168, minimal medium, 40 µM, read-out: Final Backscatter
  activity at 40 µM: 99.7%
[3]; Bacillus subtilis, 168, minimal medium, 40 µM, read-out: Growth rate
  activity at 40 µM: 99%
[3]; Bacillus subtilis, 168, minimal medium, 400 µM, read-out: Final Backscatter
  activity at 400 µM: 101%
[3]; Bacillus subtilis, 168, minimal medium, 400 µM, read-out: Growth rate
  activity at 400 µM: 88.2%
[3]; complex medium, 4 µM
  Lag Phase: 100,0%
[3]; complex medium, 40 µM
  Lag Phase: 102,6%
[3]; complex medium, 400 µM
  Lag Phase: 128,1%
[3]; minimal medium, 4 µM
  Lag Phase: 98,9%
[3]; minimal medium, 40 µM
  Lag Phase: 102,2%
[3]; minimal medium, 400 µM
  Lag Phase: 116,3%

## O=C(/C=C/c1ccccc1)c1ccccc1O [Compound 2, 2′-Hydroxychalcone]
[1]
  Selectivity C4/C3: 1.5 fold
  IC50: 51.9 ± 15 µM
[2]; KT2440, read-out: Final Backscatter, complex medium, 5 µM, relative to control
  activity at 5 µM: 98%
[2]; KT2440, read-out: Final Backscatter, complex medium, 50 µM, relative to control
  activity at 50 µM: 101%
[2]; KT2440, read-out: Final Backscatter, complex medium, 500 µM, relative to control
  activity at 500 µM: 102%
[2]; KT2440, read-out: Final Backscatter, minimal medium, 5 µM, relative to control
  activity at 5 µM: 96.6%
[2]; KT2440, read-out: Final Backscatter, minimal medium, 50 µM, relative to control
  activity at 50 µM: 98%
[2]; KT2440, read-out: Final Backscatter, minimal medium, 500 µM, relative to control
  activity at 500 µM: 111%
[2]; KT2440, read-out: Growth rate, complex medium, 5 µM, relative to control
  activity at 5 µM: 103%
[2]; KT2440, read-out: Growth rate, complex medium, 50 µM, relative to control
  activity at 50 µM: 102%
[2]; KT2440, read-out: Growth rate, complex medium, 500 µM, relative to control
  activity at 500 µM: 189%
[2]; KT2440, read-out: Growth rate, minimal medium, 5 µM, relative to control
  activity at 5 µM: 96%
[2]; KT2440, read-out: Growth rate, minimal medium, 50 µM, relative to control
  activity at 50 µM: 99.3%
[2]; KT2440, read-out: Growth rate, minimal medium, 500 µM, relative to control
  activity at 500 µM: 153%
[2]; complex medium, 5 µM
  Lag Phase: 101,0%
[2]; complex medium, 50 µM
  Lag Phase: 102,6%
[2]; complex medium, 500 µM
  Lag Phase: 110,8%
[2]; minimal medium, 5 µM
  Lag Phase: 100,0%
[2]; minimal medium, 50 µM
  Lag Phase: 100,6%
[2]; minimal medium, 500 µM
  Lag Phase: 100,0%
[3]; Bacillus subtilis, 168, read-out: Final Backscatter, complex medium, 5 µM, relative to control
  activity at 5 µM: 96.4%
[3]; Bacillus subtilis, 168, read-out: Final Backscatter, complex medium, 50 µM, relative to control
  activity at 50 µM: 97.6%
[3]; Bacillus subtilis, 168, read-out: Final Backscatter, complex medium, 100 µM, relative to control
  activity at 100 µM: 112%
[3]; Bacillus subtilis, 168, read-out: Final Backscatter, complex medium, 500 µM, relative to control
  activity at 500 µM: 75.6%
[3]; Bacillus subtilis, 168, read-out: Final Backscatter, minimal medium, 5 µM, relative to control
  activity at 5 µM: 97.9%
[3]; Bacillus subtilis, 168, read-out: Final Backscatter, minimal medium, 50 µM, relative to control
  activity at 50 µM: 95.5%
[3]; Bacillus subtilis, 168, read-out: Final Backscatter, minimal medium, 100 µM, relative to control
  activity at 100 µM: 101%
[3]; Bacillus subtilis, 168, read-out: Final Backscatter, minimal medium, 500 µM, relative to control
  activity at 500 µM: 70%
[3]; Bacillus subtilis, 168, read-out: Growth rate, complex medium, 5 µM, relative to control
  activity at 5 µM: 91.2%
[3]; Bacillus subtilis, 168, read-out: Growth rate, complex medium, 50 µM, relative to control
  activity at 50 µM: 97.7%
[3]; Bacillus subtilis, 168, read-out: Growth rate, complex medium, 100 µM, relative to control
  activity at 100 µM: 118%
[3]; Bacillus subtilis, 168, read-out: Growth rate, minimal medium, 5 µM, relative to control
  activity at 5 µM: 96.8%
[3]; Bacillus subtilis, 168, read-out: Growth rate, minimal medium, 50 µM, relative to control
  activity at 50 µM: 113%
[3]; Bacillus subtilis, 168, read-out: Growth rate, minimal medium, 100 µM, relative to control
  activity at 100 µM: 134%
[3]; Bacillus subtilis, 168, read-out: Growth rate, minimal medium, 500 µM, relative to control
  activity at 500 µM: 98.7%
[3]; complex medium, 5 µM
  Lag Phase: 89,8%
[3]; complex medium, 50 µM
  Lag Phase: 100,0%
[3]; complex medium, 100 µM
  Lag Phase: 95,4%
[3]; minimal medium, 5 µM
  Lag Phase: 99,5%
[3]; minimal medium, 50 µM
  Lag Phase: 108,5%
[3]; minimal medium, 100 µM
  Lag Phase: 107,8%
[3]; minimal medium, 500 µM
  Lag Phase: 143,1%
